# Results as given in patent US20240165273A1, “SELF-ASSEMBLING MOLECULES ENABLING HIGH PERFORMANCE IN VIVO IMAGING IN THE SECOND NEAR INFRARED (NIR-II) WINDOW” (Baylor College of Medicine, priority 2022, published 2024).
# “Also recorded” adds a separate entry of the source.
# Key:
# [1] = tested on: Mouse Oral Cancer 2 (MOC2) tumor; experiment: In vivo NIR-II tumor imaging, MOC2 tumor model
# Source text: (§1) Applicants hypothesized that intravenous administration of NIR-II dyes such as XW-03-66, has the potential to accumulate in these tumors via the EPR effect, thus enabling NIR-II image-guided intraoperative resection with improved adequate margin delineation. To test this hypothesis, two different syngeneic murine models of head and neck squamous cell carcinoma were used: (1) the human papillomavirus (HPV)-positive mEER tumor model, featuring murine pharyngeal epithelial cells transformed with HPV16 E6 and E7 oncogenes and H-ras, and (2) HPV-ve, the carcinogen induced Mouse Oral Cancer 2 (MOC2) tumor model.
# (§2) Test mice (n=4 for each model) were first subjected to preoperative MRI scans to establish presence of the tumor. Following MRI confirmation, tumor-bearing mice were administered XW-03-66 (dose=5 mg/kg) by tail vein injection. For comparison, a similar number of mice with MRI-confirmed tumors were injected with clinically approved ICG at a similar dose. To monitor dynamics of tumor uptake, NIR-II images were collected at different time intervals over a period of seven days.
# [2] = tested on: HPV-positive mEER tumor; experiment: In vivo NIR-II tumor imaging, mEER tumor model; set-up: species or system mouse; settings: mEER tumor bearing mice, i.v., 5 mg/kg or similar dose
# Source text: as §1, §2
# [3] = Optical properties (absorption, emission, quantum yield, solution) in PBS; assay type: physicochemical; settings: PBS (50 μM)
# [4] = in 20 minutes post-intravenous injection; cited from earlier work
# [5] = biological target: serum albumin (Homo sapiens, UniProt P02768); settings: binding with serum albumin in solution; cited from earlier work
# [6] = Photostability under continuous laser excitation in PBS and bovine plasma; assay type: physicochemical
# [7] = in PBS; cited from earlier work
# Sequence of serum albumin (P02768 25-609): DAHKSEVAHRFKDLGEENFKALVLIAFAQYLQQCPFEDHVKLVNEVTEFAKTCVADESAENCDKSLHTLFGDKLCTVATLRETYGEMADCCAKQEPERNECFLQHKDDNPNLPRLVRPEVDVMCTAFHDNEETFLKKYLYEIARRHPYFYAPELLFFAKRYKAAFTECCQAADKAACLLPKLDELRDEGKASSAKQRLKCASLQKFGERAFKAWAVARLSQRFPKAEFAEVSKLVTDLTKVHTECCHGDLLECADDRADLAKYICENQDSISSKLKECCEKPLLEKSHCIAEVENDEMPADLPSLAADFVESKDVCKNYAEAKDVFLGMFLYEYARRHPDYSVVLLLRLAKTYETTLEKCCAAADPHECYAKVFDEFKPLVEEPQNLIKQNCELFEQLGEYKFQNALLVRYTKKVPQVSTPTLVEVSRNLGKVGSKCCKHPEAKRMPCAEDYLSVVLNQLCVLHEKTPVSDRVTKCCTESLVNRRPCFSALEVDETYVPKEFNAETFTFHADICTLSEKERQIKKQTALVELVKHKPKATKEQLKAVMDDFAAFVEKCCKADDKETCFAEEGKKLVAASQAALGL
smiles,measurement,setting,value
"CC1(C)C(/C=C/C=C/C=C/C=C2\N(CCCCS(=O)(=O)O)c3ccc4ccccc4c3C2(C)C)=[N+](CCCCS(=O)(=O)[O-])c2ccc3ccccc3c21 [ICG, indocyanine green]",NIR-II tumor signal,"[1]; MOC2 tumor bearing mice, i.v., 5 mg/kg or similar dose, 5 mg/kg","no signal uptake in either tumor model; also recorded: faint tumor signal at 1-2 h, and no apparent signal thereafter"
same,liver signal,"[1]; tumor-bearing mice, model not distinguished","observed in the liver in images captured within the first four hours, but completely disappeared thereafter"
same,NIR-II tumor signal,[2],"no signal uptake in either tumor model; also recorded: faint tumor signals at 1-2 h, and no apparent signal thereafter"
same,dissolution in PBS,[3],dissolve in PBS resulting in clear solutions
same,fraction removed from circulation via the liver,[4],97%
same,factor of fluorescence increase compared to solution in PBS,[5],23
same,time of drop in fluorescence to baseline,[6],≤ 30 min
same,NIR-II QY,[7],0.042%
